The text below walks through data of patent US7754718B2 (priority 2004, dated 2010).

SMILES strings stand for the structures.

In one experiment the test system is HBV core protein. The experiment can be described thus: HBV core protein expression in HepG2.2.15 cells, Western blot. The format is cell-based, Hepatitis B virus. Particulars: 6 days. The protocol:
Southern blot hybridization was used to measure the effects of compounds on HBV DNA. Total DNA from cells was extracted using Dneasy Tissue kit (Qiagen Inc. Valencia, Calif.) and separated on a 0.8% agarose gel. Separated DNA was transferred to a Hybond-N+membrane (Amersham Pharmacia Biotech Inc. Piscataway, N.J.). Inhibition of viral DNA replication was assessed by comparison of the replicative HBV DNA from drug-treated versus untreated cultures using hybridization of the membrane with a [α-^32P] dCTP labeled whole HBV DNA probe followed by autoradiography. Quantitative densitometry was performed on a Molecular Dynamics Densitometer (Amersham Pharmacia Biotech Inc. Piscataway, N.J.) using ImageQuaNT image analysis software. The integrated HBV genome was used as the internal control to normalize the amount of DNA loaded. Northern blot hybridization was used to measure the effects of the compounds on HBV RNA. Total intracellular RNA was extracted from cells using Rneasy kit (Qiagen Inc. Valencia, Calif.). RNA was separated in a 1.2% formaldehyde agarose gel and transferred to a Hybond-N+ membrane (Amersham Pharmacia Biotech Inc. Piscataway, N.J.). The membrane was hybridized with the same probe mentioned above at 65° C. followed by autoradiography. GAPDH RNA level was used as an internal control to normalize the amount of RNA loaded. The decrease of HBV core protein expression was assessed by western blot. A cellular crude extract of […] cells was separated on a 12% SDS-PAGE gel and transferred onto a nitrocellulose membrane (Bio-rad Laboratories, Hercules, Calif.). Anti-HBV core antibody (DAKO Corp. Carpinteria, Calif.) and anti rabbit IgG secondary antibody (Sigma. St. Louis, Mo.) were added. Actin protein level was used as the internal control.
Since 3.5 kb HBV transcript was decreased after drug treatment, it was anticipated that this class of compounds would also affect viral protein expression. HepG2.2.15 cells were treated with helioxanthin and 22 for 6 days. […]

The next experiment relates to L526M/M550V (adr) HBV. Description: Extracellular HBV DNA in lamivudine-resistant DM2 cells, real-time PCR. Particulars: Hepatitis B virus, 144 h, read-out: EC50 (μM) L526M/M550V (adr). Type of experiment: cell-based. The source says:
Hep.G2.2.15 is a hepatoblastoma cell line stably transfected with a HBV genome (ayw strain) (Sells et al., 1987, Proc Natl Acad Sci USA. 84 (4):1005-1009). W10, a HepG2 cell line, was transfected with an adr HBV strain (Fu et al., 2000, Antimicrob Agents Chemother 44 (12): 3402-3407; Fu et al., 1999, Biochem Pharmacol. 57 (12): 1351-1359). These cell lines were used to assess the antiviral activity of helioxanthin and 22. Various concentrations of the drugs in minimal essential medium with Earle's salts (MEME) containing 10% fetal bovine serum (FBS) were tested in 6-day-old cultures. The drugs were left in the culture medium for 3 days, then the medium was removed and fresh medium containing the same concentration of the drugs was added. At the end of another 3-day period, the culture medium and cells were harvested to measure the HBV replication level. The Lamivudine resistant cell line DM2 (Fu et al., 2000, Antimicrob Agents Chemother 44 (12): 3402-3407) is also a hepatoblastoma cell line stably transfected with HBV genome (adr strain) which contains the L526M/M550V double mutation. The culture conditions of DM2 are the same as that of HepG.2.2.15.
Quantitative real-time PCR was used to determine the extracellular HBV copy number in the medium of DM2 cells with and without drug treatment. […] Quantification of the copy number was determined by comparing the sample amount to a standard curve generated in each run. […]
W10 and DM2 cells (Fu et al., 2000, Antimicrob Agents Chemother 44 (12): 3402-3407), were used to evaluate the effects of these two compounds on wt HBV (adr strain) and its lamivudine-resistant HBV. […] After a 6-day treatment, the amount of HBV DNA, which was secreted into the medium, was evaluated using real-time PCR (FIG. 3). […] The real-time PCR method was validated by comparing the results of intracellular HBV DNA levels obtained from the Southern blot hybridization analysis to the results from real-time PCR that measured HBV DNA copies in the HepG2.2.15 medium with or without treatment of lamivudine. […]

`O=C1OCc2c1cc1ccc3c(c1c2-c1ccc2c(c1)OCO2)OCO3` [Compound 2, 10-Benzo[1,3]dioxol-5-yl-9H-furo[3′,4′:6,7]naphtho[1,2-d][1,3]dioxol-7-one, reference compound]: the “effect on HBV core protein expression” value in the experiment on HBV core protein (listed as helioxanthin) is listed as “decreased in a dose-dependent manner”. The EC50 in the experiment on L526M/M550V (adr) HBV was 0.1 µM.

Turning to `Nc1ccn([C@@H]2CS[C@H](CO)O2)c(=O)n1` [Compound 3TC, (−)-(2R,5S)-1-[2-(hydroxymethyl)oxathiolan-5-yl]cytosine], in the experiment on HBV core protein, the “effect on HBV core protein expression” value was “no effect”. Moreover, the EC50 in the experiment on L526M/M550V (adr) HBV is more than 3 µM.

Turning to `COc1ccc(-c2c3c(cc4ccc5c(c24)OCO5)C(=O)NC3)cc1OC` [Compound 22, 10-(3,4-Dimethoxy-phenyl)-8,9-dihydro-1,3-dioxa-8-aza-dicyclopenta[a,g]naphthalen-7-one], in the experiment on HBV core protein, the “effect on HBV core protein expression” value was “decreased in a dose-dependent manner”. The EC50 in the experiment on L526M/M550V (adr) HBV is 0.0003 µM.
